Experimental data reported in article PMC11462627, “SAL0114: a novel deuterated dextromethorphan-bupropion combination with improved antidepressant efficacy and safety profile” (Frontiers in Pharmacology, 2024).

Legend:
Format in all cases: in vivo
ICR mice [1] = assay: Forced swim test; conditions: FST, oral, 1 h after administration, deDM 10 and 18 mg/kg, BUP 50 mg/kg, deDM + BUP 10 + 50 and 18 + 50 mg/kg
Method: The mouse forced swim test was performed in a way similar to that published previously by Nguyen et al. ([Nguyen et al., 2017]) with some modifications. […] All compounds were administered orally via gavage at a volume of 10 mL/kg body weight, with the vehicle group receiving an equivalent volume of saline. 1 h after administration, mice underwent the forced swim test (FST), a widely used behavioral assay for evaluating antidepressant-like effects. Each mouse was individually placed in a transparent cylindrical tank filled with water (depth: 18 cm, temperature: 25°C ± 1°C) for a 6-min test session. The initial 2 min served as the acclimatization period and was not scored. Floating time during the subsequent 4 min was measured using ANY-Maze Version 4.63 video tracking software (Stoelting Co., Illinois, United States). Floating was defined as the minimum movement required to keep the animal’s head above water. Floating time (%) = floatting time(s)/240 s. The ANY-Maze software parameters were set as follows: acclimatization period = 120 s, test duration = 240 s, minimum immobility time = 2 s, and immobility sensitivity = 75%. To maintain consistent conditions, water was changed between the animals. […]

Sprague-Dawley rats = assay: Reserpine-induced hypothermia in rats; conditions: oral, 30 min after treatment
Method: A reserpine-induced hypothermia test was performed according to the method described by Rojas-Corrales et al. ([Rojas-Corrales et al., 2004]; [Dhamija et al., 2017]), with some modifications. 80 male Sprague-Dawley rats were administered an intraperitoneal injection of reserpine (4 mg/kg). 18 h after the injection, rectal temperatures were measured using a rectal probe connected to a thermometer (MC-347, Omron Healthcare, Dalian, China). Rats with body temperatures not exceeding 34.5°C were considered successfully modeled. […] An additional group of ten rats not treated with reserpine served as the normal control. After the group assignment, the second phase of compound administration was initiated. The normal and model control groups received oral saline (10 mL/kg), whereas the other groups received their respective compounds orally at the specified doses, all in an equivalent volume (10 mL/kg). Rectal temperatures were measured 30 min after treatment to assess the effect of compounds in each group on the reserpine-induced hypothermia model. All experimental procedures were conducted in strict accordance with guidelines approved by the Institutional Animal Care and Use Committee of Shenzhen Salubris Pharmaceuticals Co., Ltd. A P value of less than 0.05 was considered statistically significant for comparisons between groups.

C57BL/6J mice = assay: Ammonia-induced cough mouse model; conditions: oral; for cough inhibition rate: 0.5 h post-administration
Method: Antitussive effects were investigated using a classical mouse cough model induced by ammonia liquor, with some modifications ([Jiang et al., 2014]; [Adejayan et al., 2019]). An ammonia-induced cough model in male C57BL/6J mice was used to evaluate the antitussive effects using a two-step approach. The initial screening phase aimed to identify the mice with consistent and pronounced cough responses. Individual mice were exposed to 0.2 mL of 13% ammonium hydroxide solution in 500 mL glass vials. A trained observer measured the latency period and recorded the number of coughs over a 3-min period post-exposure. […] Following a 24-h recovery period, 70 eligible mice were randomly allocated to seven treatment groups (n = 10 per group) for the compound evaluation phase. […] All compounds were administered orally at a volume of 10 mL/kg. At 0.5 h post-administration, each mouse was re-exposed to 0.2 mL of 13% ammonia in a 500 mL glass jar for 1 min. Subsequently, the trained observer recorded the number of coughs over a 3-min period following removal from the jar. […] All experimental procedures were conducted in strict compliance with guidelines approved by the Institutional Animal Care and Use Committee of Shenzhen Salubris Pharmaceuticals Co., Ltd., ensuring adherence to ethical standards in animal research. A P value of less than 0.05 was considered statistically significant for comparisons between groups.

[2] = Pharmacokinetic study in C57BL/6 mice; conditions: plasma DM or deDM, C57BL/6 mice, oral, 20 mg/kg, mean ± SD
Source text: The assay was built in a way similar to that previously published by [Beconi et al. (2011)] with some modifications. A total of 36 male C57BL/6 mice, weighing between 20 and 22 g, were randomly divided into four groups of nine mice each. […] Mice in each group were numbered 1–9. Following the oral administration of the compounds in each group, blood was collected from the jugular vein at the specified time points, with three mice at each time point and two to three times for each mouse. 1–3 numbered mice had blood collection time points of 0.25, 1.5, and 7 h after the administration of the compounds, 4–6 numbered mice had blood collection time points of 0.5, 2, and 24 h after the administration of the compounds, and 7–9 numbered mice had blood collection time points of 1 and 5 h after the administration of the compounds. All blood samples were collected without anesthesia, and blood was collected in heparinized EP tubes. Plasma was obtained by centrifuging the blood at 10,000 rpm for 2 min at 4°C.

ICR mice [3] = assay: Tail suspension test; conditions: TST, oral, 1 h after administration, deDM 10 and 18 mg/kg, BUP 50 mg/kg, deDM + BUP 10 + 50 and 18 + 50 mg/kg
Method: The TST was adapted from the behavioral despair test described by Nguyen et al. ([Nguyen et al., 2017]), with some modifications. […] All compounds were administered orally via gavage at a volume of 10 mL/kg body weight, with the vehicle group receiving an equivalent volume of saline. One hour after administration, mice underwent a tail suspension test (TST). For the TST, each mouse was suspended by its tail, with adhesive tape attached 2 cm from the tail tip and secured to a metal rod. Care was taken to ensure a minimum distance of 15 cm between the suspended animal and the surrounding objects. The test was performed using the ANY-maze version 4.63 video tracking program (Stoelting Co., Wood Dale, IL, United States) for a total duration of 6 min. The initial 2 min served as an acclimatization period and were not scored. The immobility time during the subsequent 4 min was measured using the same software. Immobility was defined as mouse hanging passively and motionless. The ANY-Maze software parameters were set as follows: acclimatization period = 120 s, test duration = 240 s, minimum immobility time = 2 s, and immobility sensitivity = 75%. […]

deuterated dextromethorphan [deDM]
floating time compared to the vehicle group (ICR mice [1]): did not significantly reduce the floating time
body temperature compared with the model (vehicle) group (Sprague-Dawley rats; reserpine 4 mg/kg i.p. rats, BUP 40 mg/kg, deDM 5 and 10 mg/kg, deDM + BUP 5 + 40 and 10 + 40 mg/kg): increased the body temperature of model animals in a dose-dependent manner
body temperature, high dose compared with the model (vehicle) group (Sprague-Dawley rats; reserpine rats, 10 mg/kg): reaching a statistically significant difference
cough inhibition compared with the vehicle group (C57BL/6J mice; deDM 5 and 10 mg/kg, BUP 40 mg/kg, deDM + BUP 5 + 40 and 10 + 40 mg/kg): neither deDM nor BUP significantly inhibited cough
cough inhibition rate (C57BL/6J mice; high dose 10 mg/kg): 9.1%
cough inhibition rate (C57BL/6J mice; low dose 5 mg/kg): 8.3%
AUC0-last [2]: 387 ± 163 ng·h/mL
Cmax [2]: 269 ± 83 ng/mL
immobilization time compared to the vehicle group (ICR mice [3]): did not significantly reduce the immobilization time
